As usually defined, the inhibition is the relative decrease from the control value, in per cent.

The results in this text go back to PubChem BioAssay AID1249 (Columbia University Molecular Screening Center, 2008).

The source made the active and inactive calls. The rule behind the calls is not given here.

The nature of the test: cellular cytoskeleton assembly phenotype modulators – imaging, high-content imaging, retest and dose response, confirmation (AID 1249).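 Note: compound exposure lasted 24 h before fixation; plate controls were untreated cells for no effect and reference compound treated cells for full effect.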 The note with it: cell-based imaging, cytoskeleton assembly phenotype, high content; at 2 µM; active compounds read high.
Consider `CCN1C(=O)c2cccc3c(S(=O)(=O)NCc4ccccn4)ccc1c23`, for which the inhibition is -20.8% (inactive).
In the case of `CCn1c(SCC(=O)Nc2cc(C)on2)nnc1-c1ccccc1` it was 0.6% (inactive).
The result for `COc1ccc(S(=O)(=O)NC(CC(=O)NCc2ccco2)C(C)C)cc1` (stereo not drawn) reads -5.2% (inactive); that for `CCOc1ccc(-n2c(SCC(=O)Nc3ccc(OC)cc3)nc3c(c2=O)SCC3)cc1`, 7.9% (inactive).
The result for `O=C(O)CCC(=O)NC1CCCCCCC1` reads 3.8% (inactive).
For the compound `CCOC(=O)c1cnn(-c2nc(CC)nc3sc4c(c23)CCC4)c1N`, the inhibition is -4.7% (inactive).
The result for `CCOC(=O)c1ccc(NS(=O)C23CC4CC(CC(C4)C2)C3)cc1` (stereo not drawn) reads -10.9% (inactive); that for `COc1ccc(S(=O)(=O)N2CCCC2C(=O)Nc2ccc(C)cc2)cc1` (stereo not drawn), 3.2% (inactive); that for `Cc1cc(NC(=O)C2C3C=CC(C3)C2C(=O)O)no1` (stereo not drawn), 0.1% (inactive).
In the case of `CC(CCc1ccccc1)NC(=O)c1ccc(Br)o1` (stereo not drawn) it was -0.1% (inactive); in that of `CCCOc1ccc(/C(O)=C2/C(=O)C(=O)N(CCOC)C2c2cccnc2)cc1` (stereo not drawn), -4.5% (inactive); in that of `CC(C)n1c(C(=O)OCC(=O)NCc2ccc3c(c2)OCO3)cc2sccc21`, 14.1% (inactive).
In the case of `COc1ccc(OC)c(N(CC(=O)Nc2ccccc2)S(C)(=O)=O)c1` it was 16.3% (inactive).
Regarding `COc1cc(/C=C(/C#N)C(=O)NCCc2c[nH]c3ccccc23)ccc1OCc1ccccc1F`, the inhibition was 2.3% (inactive).
In the case of `Cc1oc(-c2ccc(Cl)cc2)cc1-c1nn2c(-c3ccoc3C)nnc2s1` it was 0.3% (inactive); in that of `CC(C(=O)Nc1ccc(Br)cc1C(=O)c1ccccc1)N1CCOCC1` (stereo not drawn), 6% (inactive); in that of `COc1cc(C(=O)N(Cc2ccco2)Cc2cc3ccccc3[nH]c2=O)cc(OC)c1OC`, -1% (inactive).
The result for `CCOc1ccc2nc(C)cc(Nc3ccc4c(c3)OCCO4)c2c1` reads 7.5% (inactive); that for `CCN(CC)C(=O)CN(c1ccc(Cl)cc1)S(=O)(=O)c1ccccc1`, 0.4% (inactive); that for `C=CCNC(=O)c1nn2cccnc2c1Cl`, -9.5% (inactive).
The result for `COc1cc2c(cc1NS(=O)(=O)N1CCCC1)oc1ccccc12` reads 2.5% (inactive).
As to `CC(C)(C)NC(=O)C1N(c2cccnc2)C(=O)C2C(C(=O)Nc3ccccc3F)C3(C)C=CC21O3` (stereo not drawn), the inhibition is -29.5% (inactive).
In the case of `CNC(=O)CN(c1ccc(OC)cc1)S(=O)(=O)c1ccc(F)cc1` it was -9% (inactive).
`CCOC(=O)c1ccc(NC(=O)CCNc2c(N3CCCC3)c(=O)c2=O)cc1`: the inhibition was 1.6% (inactive).
In the case of `CCOC(=O)c1ccc(-n2c(=S)sc3c(=O)[nH]c(C)nc32)cc1`, the inhibition is 3.6% (inactive).
The result for `O=C(OCn1ncc(Br)c(Br)c1=O)c1ccc(F)cc1` reads 10.9% (inactive); that for `COc1ccccc1N(C)S(=O)(=O)c1ccc(C(=O)NCC(C)C)cc1`, 2.3% (inactive); that for `COC(=O)c1sccc1NC(=O)CCC1CCCC1`, -0.4% (inactive).
The result for `COc1ccccc1/C=N/NC(=O)C(NC(=O)c1ccccc1)=C(C)C` reads 5.8% (inactive); that for `CSc1nnc2n(-c3ccccc3)c(=O)c3c4c(sc3n12)CCC4`, 8.1% (inactive).
The result for `CCC(C)C1C(C#N)=C(N)Oc2n[nH]c(-c3ccccc3)c21` (stereo not drawn) reads 1.1% (inactive); that for `COc1ccc(C(=O)C(CN2CCOCC2)c2ccccc2)cc1` (stereo not drawn), 1.1% (inactive); that for `C=CCn1c(N)c(C(=O)OCC(C)C)c2nc3ccccc3nc21`, -0.2% (inactive).
Regarding `CC(C)(C)C(=O)/C(=C\c1cccc([N+](=O)[O-])c1)n1cncn1`, the inhibition is 0.1% (inactive).
In the case of `CC(C)(C)NC(=O)CSc1nsc(SCC(=O)NC(C)(C)C)c1C#N` it was -0.7% (inactive); in that of `O=S(=O)(c1cccc(-n2cnnn2)c1)N1CCOCC1`, -4.7% (inactive); in that of `Cn1nc(C(F)(F)F)c(C(=O)Nc2ccc(F)cc2F)c1Sc1ccc(C(F)(F)F)cc1`, 13.2% (inactive).
In the case of `O=C(Nc1ccccc1)c1nnsc1S(=O)(=O)c1ccc(Cl)cc1` it was 5.3% (inactive).
The result for `Cc1cc(NC(=O)NC(=O)c2cccc(OC(F)(F)C(F)F)c2)n[nH]1` reads -2.9% (inactive); that for `CCn1ccnc1C(O)c1cccc(OC)c1` (stereo not drawn), 6.1% (inactive); that for `Nc1sccc1C(=O)c1ccc(Cl)cc1`, -15.5% (inactive).
As for `Cc1cccc(OCC(=O)Nc2cc(C)ccc2O)c1`, the inhibition was -8.8% (inactive).
The result for `Cc1cc(C)cc(OCc2nnc(SCC(=O)N3CCN(c4ccccc4)CC3)o2)c1` reads -9.6% (inactive); that for `Cc1nc(S(=O)(=O)N(C)Cc2ccccc2)c(C#N)c(C)c1Cl`, -5.1% (inactive); that for `CCCC(C(=O)NC1CCCC1)N(CCCN1CCOCC1)C(=O)c1snc(C(N)=O)c1N` (stereo not drawn), -2.3% (inactive).
In the case of `N#Cc1cc2c(nc1SCC(=O)N1CCCCC1)CCCC2` it was 2.1% (inactive); in that of `Cn1cc([N+](=O)[O-])c(C(=O)Nc2ccc3c(c2)OCCO3)n1`, -7.4% (inactive).
In the case of `NC(=S)N/N=C\c1ccc(-c2cccc(Cl)c2Cl)o1` it was -8.9% (inactive).
For the compound `CC(C)(C)c1ccc(C(=O)N/N=C/c2cccc(Cl)c2)cc1`, the inhibition is 7.3% (inactive).
In the case of `CCCCC(=O)NC(=S)Nc1ccccc1C(=O)Nc1ccccc1` it was 3.2% (inactive); in that of `O=C1N2CCSC2=NC1(Nc1ccccn1)C(F)(F)F` (stereo not drawn), -0.2% (inactive); in that of `COc1ccc(-c2cc3ccccc3oc2=O)cc1NC(=O)c1ccc([N+](=O)[O-])o1`, -8.3% (inactive).
The result for `COc1ccccc1-c1cn(S(=O)(=O)c2ccc(C)cc2)nc1N` reads 7.9% (inactive).
In the case of `COc1ccc(Nc2nc(N3CCCC3)nc3ccccc23)c(OC)c1` it was -12.3% (inactive).
For `CCCNS(=O)(=O)c1ccc2c(c1)CCCN2C(C)=O`, the inhibition was -1.4% (inactive).
Regarding `O=c1ccc(Oc2nc(N3CCOCC3)nc(N3CCOCC3)n2)nn1-c1ccccc1`, the inhibition is 9.9% (inactive).
In the case of `Oc1ccc(Nc2nc(-c3ccc4ccccc4c3)cs2)cc1` it was -9.7% (inactive); in that of `CCNc1nc(OC)nc(Oc2ccc(C(=O)OC)cc2)n1`, -22.8% (inactive).
In the case of `CCOc1ccccc1N1C(=O)NC(=O)C(CCc2ccncc2)(CCc2ccncc2)C1=O` it was -4.8% (inactive); in that of `Cc1cc(C)cc(OCC(=O)Nc2nonc2NC(=O)COc2cc(C)cc(C)c2)c1`, -12% (inactive).
The result for `O=C(CN1CCN(c2nc(-c3ccc(F)cc3)cs2)CC1)Nc1ccc2c(c1)OCO2` reads -7.5% (inactive).
Take `CC(=O)Cn1c(N2CCC(Cc3ccccc3)CC2)nc2c1c(=O)[nH]c(=O)n2C`: the inhibition is -5.3% (inactive).
As for `Cc1ccc(Cl)cc1N1CCN(C(c2cccnc2)c2nnnn2C2CCCCC2)CC1` (stereo not drawn), the inhibition was 12.1% (inactive).
The result for `COCCCNC(=S)NC1CC2CCCC(C1)N2Cc1ccco1` (stereo not drawn) reads 4.7% (inactive).
In the case of `COc1ccc(-c2nnc(SCC(=O)NC3CCCCC3)o2)cc1OC` it was -3.7% (inactive); in that of `CCc1ccc(C(=O)/C=C/c2ccc([N+](=O)[O-])o2)cc1`, -3.9% (inactive).
The result for `CCOC(=O)N1CCC(NC(=O)c2ccc(CNS(=O)(=O)c3ccc(F)cc3)cc2)CC1` reads -3.7% (inactive); that for `COC(=O)c1ccc(-n2nnnc2SCC(=O)N2CCCCC2)cc1`, 3.1% (inactive); that for `CN1Cc2cc(C(=O)c3cc(Cl)cc(CSc4ncccn4)c3O)cnc2NC1=O`, 10.6% (inactive).
As for `Cc1ccc(C(=O)c2cc([N+](=O)[O-])ccc2N2CCOCC2)c(C)c1`, the inhibition was 3.2% (inactive).
On to `COc1ccc(Cn2nnnc2C(c2cccs2)N2CCSCC2)cc1` (stereo not drawn), for which the inhibition was -3.9% (inactive).
The result for `COc1cccc(CNC(=O)C(=O)NCC2CCCO2)c1` (stereo not drawn) reads -16.1% (inactive); that for `O=C(CS(=O)c1ccc(C(F)(F)F)cc1[N+](=O)[O-])Oc1ccc(Cl)cc1` (stereo not drawn), 5.2% (inactive).
Take `Cc1cc(C)c(C#N)c(SCc2nc3ccccc3[nH]2)n1`: the inhibition is -5.7% (inactive).
Regarding `O=[N+]([O-])c1cnccc1Nc1ccc(F)cc1`, the inhibition was 4.7% (inactive).
The result for `CCOc1cc(-c2conc2N)cc(OCC)c1OCC` reads 10.2% (inactive); that for `CC/C(=N\NC(=O)CNC(=O)/C=C/c1ccco1)c1ccccc1`, -9.3% (inactive).
The result for `O=C(CN1CCCCCC1=O)OCc1ncc(-c2ccccc2)o1` reads -11.1% (inactive); that for `CC(=O)c1ccc(Oc2cc(C)nc(-n3nc(C)cc3C)n2)cc1`, 11% (inactive).
The result for `O=C(COc1ccccc1)N1CCN(CC(O)COc2ccccc2)CC1` (stereo not drawn) reads 11.3% (inactive).
Turning to `CC(N)Cc1ccccc1Sc1ccc(O)cc1` (stereo not drawn), the inhibition is 5.2% (inactive).
As to `Cc1cc(NC(=O)CSc2nc3ccccc3c(=O)n2C2CCCC2)no1`, the inhibition is 6.7% (inactive).
The result for `O=c1c2ccccc2nnn1CSc1ncnc2ccccc12` reads -4% (inactive).
In the case of `O=C(Cc1ccc(-n2cccc2)cc1)NC1CCCCCC1` it was -6.9% (inactive); in that of `O=S(=O)(c1ccc(Cl)c(Cl)c1)c1snnc1-c1ccccc1`, 5.7% (inactive); in that of `COc1ccc(N2CCN(C(=O)CSc3nnc4c(C)cc5cc(C)ccc5n34)CC2)cc1`, 3.6% (inactive).
The result for `COC(=O)c1ccccc1NC(=O)c1ccc(-c2cccc(Cl)c2)o1` reads 2.6% (inactive); that for `COc1ccc(CN2C(=O)[C@@H]3C(c4ccc(F)cc4)=NO[C@@H]3C2=O)cc1`, 6.5% (inactive).
